Experimental data published in ChEMBL document CHEMBL1139406, “Anti-HIV-1 activity of phloroglucinol derivative, 6,6'-bieckol, from Ecklonia cava” (Bioorg Med Chem, 2008).
Calls of active or inactive are those of the source. The calls are words filed in the database; no cut-off is given here.

Legend:
[1] = molecular target: Human immunodeficiency virus type 1 reverse transcriptase (Human immunodeficiency virus 1, UniProt Q72547); assay: Inhibition of HIV1 3B reverse transcriptase activity
Protease = Protease (Human immunodeficiency virus 1, UniProt Q9YQ12); assay: (§1) Inhibition of HIV1 3B recombinant protease
[2] = molecular target: Human immunodeficiency virus type 1 reverse transcriptase (Human immunodeficiency virus 1) (UniProt Q72547); assay: Inhibition of HIV1 3B reverse transcriptase activity at 1 uM
[3] = test system: Human immunodeficiency virus 1; assay: Antiviral activity against HIV1 3B in human C8166 co-cultivated with H9 cells assessed as inhibition of cell-virus fusion after 72 hrs; assay type: functional, organism-based
CEM-SS = assay: Cytotoxicity against human CEM-SS cells up to 500 by MTT assay; assay type: cell-based
[4] = test system: Human immunodeficiency virus 1; assay: Antiviral activity against HIV1 3B in human C8166 co-cultivated with H9 cells assessed as inhibition of cell-cell fusion after 72 hrs; assay type: functional, organism-based
[5] = test system: Human immunodeficiency virus 1; assay: Antiviral activity against HIV1 3B in human H9 cells assessed as inhibition of p24 gag protein production after 4 days by Western blot analysis; assay type: functional, organism-based
[6] = test system: Human immunodeficiency virus 1; assay: Antiviral activity against HIV13B in human C8166 co-cultivated with H9 cells assessed as inhibition of viral-induced syncytia formation at 25 uM after 72 hrs; assay type: functional, 3B; set-up: scale not given: the % may be the effect or the level left
[7] = test system: Human immunodeficiency virus 1; assay: Antiviral activity against HIV1 3B in human H9 cells assessed as inhibition of p55 gag protein production after 4 days by Western blot analysis; assay type: functional, organism-based
[8] = test system: Human immunodeficiency virus 1; assay: Antiviral activity against HIV1 3B in human H9 cells assessed as inhibition of p24 antigen production at 10 uM by ELISA; assay type: functional; conditions: Human immunodeficiency virus 1, 3B
[9] = molecular target: Human immunodeficiency virus type 1 reverse transcriptase (Human immunodeficiency virus 1) (UniProt Q72547); assay: Inhibition of HIV1 3B reverse transcriptase activity at 10 uM
[10] = Cytotoxicity against human CEM-SS cells after 72 hrs by MTT assay; assay type: cell-based
[11] = molecular target: Protease (Human immunodeficiency virus 1) (UniProt Q9YQ12); assay: as §1
[12] = test system: Human immunodeficiency virus 1; assay: Antiviral activity against HIV1 3B in human CEM-SS cells assessed as inhibition of viral-induced lytic effect after 7 days by MTT assay; assay type: functional, organism-based; conditions: Human immunodeficiency virus 1, 3B, 168 h
[13] = test system: Human immunodeficiency virus 1; assay: Antiviral activity against HIV1 3B in human H9 cells assessed as inhibition of p24 antigen production at 25 uM by ELISA; assay type: functional, organism-based
[14] = test system: Human immunodeficiency virus 1; assay: Antiviral activity against HIV1 3B in human C8166 cells assessed as inhibition of viral-induced syncytia formation after 72 hrs; assay type: functional, organism-based; conditions: Human immunodeficiency virus 1, 3B, C8166, 72 h
[15] = test system: Human immunodeficiency virus 1; assay: Antiviral activity against HIV1 3B in human H9 cells assessed as inhibition of p24 antigen production by ELISA; assay type: functional, organism-based; conditions: Human immunodeficiency virus 1, 3B
[16] = test system: Human immunodeficiency virus 1; assay: Antiviral activity against HIV1 3B in human C8166 cells assessed as inhibition of viral-induced syncytia formation at 25 uM after 72 hrs; assay type: functional; set-up: scale not given: the % may be the effect or the level left
[17] = test system: Human immunodeficiency virus 1; assay: Antiviral activity against HIV1 3B in human H9 cells assessed as inhibition of p41 gag protein production after 4 days by Western blot analysis; assay type: functional, organism-based
[18] = test system: Human immunodeficiency virus 1; assay: Antiviral activity against HIV1 3B in human CEM-SS cells assessed as inhibition of viral-induced lytic effect at 25 uM after 7 days by MTT assay; assay type: functional; set-up: scale not given: the % may be the effect or the level left
[19] = Therapeutic index, ratio of CC50 for human CEM-SS cells to IC50 for HIV1 induced lytic effect; assay type: cell-based; conditions: read-out: TI
[20] = test system: Human immunodeficiency virus 1; assay: Antiviral activity against HIV1 3B in human H9 cells assessed as inhibition of p24 antigen production at 5 uM by ELISA; assay type: functional, organism-based

Chain of Protease (Q9YQ12 whole entry): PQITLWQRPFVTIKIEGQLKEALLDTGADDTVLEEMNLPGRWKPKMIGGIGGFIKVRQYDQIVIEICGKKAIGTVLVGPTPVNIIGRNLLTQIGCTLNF
Chain of Protease (Human immunodeficiency virus 1) (Q9YQ12 as listed by the source): as the sequence (Q9YQ12 whole entry) above

With Oc1cc(O)cc(Oc2c(O)cc(O)c3c2Oc2c(cc(O)c(-c4c(O)cc5c(c4O)Oc4c(Oc6cc(O)cc(O)c6)c(O)cc(O)c4O5)c2O)O3)c1 the EC50 [1] was 510 nM and the IC50 (Protease) was 81500 nM.
With Oc1cc(O)cc(Oc2c(O)cc(O)c3c2Oc2c(O)cc(O)c(-c4c(O)cc(O)c5c4Oc4c(O)cc(O)c(Oc6cc(O)cc(O)c6)c4O5)c2O3)c1 the inhibition [2] was 50.5%, the Activity [3] was “Active” and the Activity (CEM-SS) was “Non-toxic”. The Activity [4] was “Active”, the Activity [5] was “Dose-dependent effect” and the EC50 [1] was 1070 nM. The Activity [6] was 80%, the Activity [7] was “Active” and the inhibition at 10 µM [8] was 90%. The inhibition [9] was 96.3%, the CC50 at 72 h [10] was 484000 nM and the Activity [11] was “inactive”. For the same compound, the EC50 [12] was 1230 nM, the Activity [13] was “Active” and the EC50 [14] was 1720 nM. For the same compound, the EC50 [15] was 1260 nM, the Activity [16] was 88% and the Activity [17] was “Active”. The Activity [18] was over 96% and the selectivity ratio [19] was 393.
With Cc1cn([C@H]2C[C@H](N=[N+]=[N-])[C@@H](CO)O2)c(=O)[nH]c1=O the Activity [20] was “Active”.
